Experimental data from paper PMC12010937, “Evaluation of FXR Activity in Pollutants Identified in Sewage Sludge and Subsequent in Vitro and in Vivo Characterization of Metabolic Effects of Triphenyl Phosphate” (Environmental Health Perspectives, 2025).
Values joined by “and” are separate entries in the source; they are usually repeats but may differ in a detail not shown here. Identical values can stand only once.

Assay: Body weight during exposure
Type: in vivo, C57BL/6N mice
Conditions: for Relative body weight / Body weight: individual mice
Method: Male C57BL/6N mice (8 wk of age) were purchased from Beijing Vital River Laboratory Inc. and acclimated to the environment for 2 wk before they were used for experiments. The environment was maintained at 22°C, in a 12-h light/dark cycle with 50%–60% relative humidity and fed standard chow diets. Because the male mice are more sensitive to metabolic disease than female mice and the estrous cycle of female mice may induce variability to the metabolic phenotypes,[50] only male mice were used in this study. Animals were randomly assigned to control or TPHP treatment groups (five mice per group). Mice were exposed to corn oil (control) purchased from Sigma-Aldrich (C8267) or TPHP (dissolved in corn oil) at 10mg/kg or 50mg/kg body weight (BW) by daily oral gavage for 35 d. The administered volume was 5mL/kg BW. The TPHP corn oil solutions for administration were prepared by dissolving the TPHP in corn oil, and the solutions were stored at −20°C and freshly prepared each week. BW was measured every other day during the dosing period. At the end of experiments, the mice were anesthetized with isoflurane, then blood was collected from the retro-orbital sinus via orbital puncture, and then the mice were euthanized by cervical dislocation. The liver was isolated, weighted, and divided into three fractions: one fraction was fixed with 4% neutral-buffered formalin for Oil Red staining; another fraction was frozen in liquid nitrogen and stored at −80°C for the BA targeted analysis, lipidomic analysis, and qPCR analysis; the remaining fraction was embedded with 3% carboxymethylcellulose (CMC) for MSI analysis. The ileum was also isolated, weighted, and stored at −80°C for the BA targeted analysis and qRT-PCR analysis. Cecal contents were collected from the cecum of mice for the 16S rRNA gene sequencing analysis. Animal study protocols were approved by the Animal Care and Use Committee of Peking University (approval number: Urban-WanY-1).

With O=P(Oc1ccccc1)(Oc1ccccc1)Oc1ccccc1 [TPHP, triphenyl phosphate] the “Body weight vs control group (in words)” value (TPHP-L and TPHP-H groups, last week of 35 d exposure) was “significantly high BW”, the Relative body weight (day0, TPHP-H group) was 100% and the Relative body weight (day0, TPHP-L group) was 100%. The Relative body weight (day2, TPHP-H group) was 100.00% and 95.33% and 100.77% and 93.99% and 94.87%, the Relative body weight (day2, TPHP-L group) was 100.70% and 96.31% and 97.06% and 97.18% and 97.32% and the Relative body weight (day4, TPHP-H group) was 97.19% and 93.33% and 101.54% and 92.93% and 92.67%. For the same compound, the Relative body weight (day4, TPHP-L group) was 97.89% and 93.62% and 95.96% and 97.58% and 94.25%, the Relative body weight (day6, TPHP-H group) was 97.59% and 92.00% and 101.92% and 90.46% and 91.58% and the Relative body weight (day6, TPHP-L group) was 98.24% and 94.30% and 94.12% and 97.18% and 94.25%. The Relative body weight (day8, TPHP-H group) was 98.39% and 93.00% and 103.85% and 92.23% and 93.41%, the Relative body weight (day8, TPHP-L group) was 98.59% and 94.30% and 95.59% and 96.37% and 95.40% and the Relative body weight (day10, TPHP-H group) was 98.39% and 92.67% (2×) and 103.85% and 90.46%. The Relative body weight (day10, TPHP-L group) was 98.24% and 94.30% and 95.59% and 95.97% and 94.25%, the Body weight (day12, TPHP-H group) was 24.8 g and 28.9 g and 27.4 g and 26.1 g (2×) and the Relative body weight (day12, TPHP-H group) was 99.60% and 96.33% and 105.38% and 92.23% and 95.60%. The Body weight (day12, TPHP-L group) was 28.0 g and 28.2 g and 26.3 g and 24.2 g and 24.9 g, the Relative body weight (day12, TPHP-L group) was 98.59% and 94.63% and 96.69% and 97.58% and 95.40% and the Body weight (day14, TPHP-H group) was 24.9 g and 29.3 g and 27.7 g and 25.9 g and 26.3 g. For the same compound, the Relative body weight (day14, TPHP-H group) was 100.00% and 97.67% and 106.54% and 91.52% and 96.34%, the Body weight (day14, TPHP-L group) was 28.7 g and 28.5 g and 26.4 g and 23.8 g and 25.1 g and the Relative body weight (day14, TPHP-L group) was 101.06% and 95.64% and 97.06% and 95.97% and 96.17%. The Body weight (day16, TPHP-H group) was 25.2 g and 29.6 g and 28.2 g and 26.6 g and 26.7 g, the Relative body weight (day16, TPHP-H group) was 101.20% and 98.67% and 108.46% and 93.99% and 97.80% and the Body weight (day16, TPHP-L group) was 28.9 g (2×) and 27.2 g and 24.0 g and 25.4 g. For the same compound, the Relative body weight (day16, TPHP-L group) was 101.76% and 96.98% and 100.00% and 96.77% and 97.32%, the Body weight (day18, TPHP-H group) was 25.6 g and 30.6 g and 28.3 g and 26.9 g and 27.4 g and the Relative body weight (day18, TPHP-H group) was 102.81% and 102.00% and 108.85% and 95.05% and 100.37%. For the same compound, the Body weight (day18, TPHP-L group) was 29.0 g and 29.3 g and 27.4 g and 24.4 g and 25.6 g, the Relative body weight (day18, TPHP-L group) was 102.11% and 98.32% and 100.74% and 98.39% and 98.08% and the Body weight (day20, TPHP-H group) was 25.6 g and 30.4 g and 28.2 g and 27.6 g (2×). For the same compound, the Body weight (day20, TPHP-L group) was 29.6 g and 30.1 g and 27.7 g and 25.0 g and 26.0 g, the Body weight (day22, TPHP-H group) was 25.7 g and 30.4 g and 27.7 g and 27.6 g and 28.0 g and the Body weight (day22, TPHP-L group) was 29.5 g and 29.1 g and 27.8 g and 25.2 g and 26.1 g. The Body weight (day24, TPHP-H group) was 26.2 g and 30.9 g and 27.9 g and 28.0 g and 28.4 g, the Body weight (day24, TPHP-L group) was 29.9 g and 30.1 g and 28.1 g and 25.1 g and 26.4 g and the Body weight (day26, TPHP-H group) was 26.8 g and 31.6 g and 28.0 g and 27.8 g and 28.5 g. For the same compound, the Body weight (day26, TPHP-L group) was 30.2 g and 31.0 g and 28.7 g and 25.9 g and 26.7 g, the Body weight (day28, TPHP-H group) was 27.0 g and 31.6 g and 27.9 g and 28.1 g and 28.9 g and the Body weight (day28, TPHP-L group) was 30.1 g and 31.3 g and 28.7 g and 25.4 g and 26.8 g. For the same compound, the Body weight (day30, TPHP-H group) was 27.3 g and 32.3 g and 28.7 g and 28.3 g and 29.8 g and the Body weight (day30, TPHP-L group) was 29.9 g and 31.6 g and 29.4 g and 26.2 g and 27.1 g.
